Measured values taken from the NIST ThermoML archive (doi:10.1021/je101192x).

Test: wn = mass fraction of the nth substance listed
Details: for viscosity / mass density: 101 kPa, Liquid; for viscosity: Capillary tube (Ostwald / Ubbelohde) method; for mass density: Pycnometric method; for surface tension liquid-gas: Pendant drop shape

CN(CCO)CCO [N-methyldiethanolamine] + O
Details	mass density, 288.15 K [kg/m3]	mass density, 313.15 K [kg/m3]	surface tension liquid-gas, 313.15 K [mN/m]	viscosity, 288.15 K [mPa·s]	viscosity, 313.15 K [mPa·s]
w1 = 0.1	1007.1	1001.1	58.71	1.711	0.905
w1 = 0.2	1017.5	1008.1	54.68	2.631	1.312
